According to ChEMBL document CHEMBL1136180, “Isolation of bisindole alkaloids that inhibit the cell cycle from Myxomycetes Arcyria ferruginea and Tubifera casparyi” (Bioorg Med Chem Lett, 2003):

Legend:
HeLa [1] = assay: Compound was tested at concentration of 280 nM for HeLa cell cycle inhibition; arrest of G2/M phase; type: functional, cell-based; conditions: Homo sapiens
HeLa [2] = assay: Compound was tested at concentration of 28 nM for HeLa cell cycle inhibition; arrest of G1 phase; type: functional, cell-based; conditions: Homo sapiens

## O=C1NC(=O)c2c1c1c3ccc(O)cc3[nH]c1c1[nH]c3cc(O)ccc3c21
HeLa [1]
  Concentration: 100 ng/mL
HeLa [2]
  Concentration: 10 ng/mL
